Laboratory results taken from ChEMBL document CHEMBL1141718, “Design, synthesis and antiproliferative activity of two new heteroannelated (-)-muricatacin mimics” (Bioorg Med Chem Lett, 2008).

Tests used:
K562 = experiment: Antiproliferative activity against human K562 cells after 72 hrs by MTT assay; type: functional, cell-based; settings: K562, 72 h
HL-60 = experiment: Antiproliferative activity against human HL60 cells after 72 hrs by MTT assay; type: functional, cell-based; settings: HL-60, 72 h
Jurkat = experiment: Antiproliferative activity against human Jurkat cells after 72 hrs by MTT assay; type: functional, cell-based
HeLa = experiment: Antiproliferative activity against human HeLa cells after 72 hrs by MTT assay; type: functional, cell-based
MRC5 = experiment: Antiproliferative activity against human MRC5 cells after 72 hrs by MTT assay; type: cell-based; settings: MRC5, 72 h

Row | Compound | IC50 (K562) [µM] | IC50 (HL-60) [µM] | IC50 (Jurkat) [µM] | IC50 (HeLa) [µM] | IC50 (MRC5) [µM]
1 | CCCCCCCCCCCC[C@@H](O)[C@H]1CCC(=O)O1 | 0.04 | 25.9 | > 100 | 0.17 | > 100
2 | CCCCCCCCCCOC[C@@H](O)[C@H]1CCC(=O)O1 | 0.13 | 0.15 | 3.01 | 21.4 | > 100
3 | CCCCCCCCCCOC[C@@H]1O[C@H]2CC(=O)O[C@H]2[C@@H]1O | 1.25 | 0.14 | > 100 | 0.3 | > 100
4 | CCCCCCCCCOC[C@@H]1O[C@H]2CC(=O)O[C@H]2[C@@H]1O | 8.61 | 1.53 | 6.64 | 9.59 | > 100
